Measured values reported in US20160311760A1, “COMPOUNDS FOR TREATMENT OF CARDIAC ARRHYTHMIAS” (ELEX BIOTECH, LLC, priority 2013, published 2016).

Legend:
[1] = Effect on the length of the AP
Protocol: (§1) For example, the concentration of lead compound Compound 1 that suppressed ventricular tachycardia is approximately 0.5% of compound K201 (JTV519) that was previously used to inhibit arrhythmias in a similar mouse model. […] Therefore, advantages exist with regard to reduction of dosage response time compared to previously used drugs to inhibit arrhythmias. […] While Compound 1 inhibits sparks and arrhythmias at 35 nM, the ATPase activity of SERCA2 has been measured versus concentration of Compound 1. At concentrations of 1 μM, 10 μM and 50 μM, ATPase activity was unaffected (data not shown). The data shown in FIGS. 2 and 3 have been repeated several times with different animals (e.g., rabbit model).

in vitro [2] = settings: human
RyR2 [3] = target: T1, RyR2 (Mus musculus, UniProt E9Q401); test: Ca2+ spark frequency assay in ventricular myocytes from CPVT mouse model (R176Q/+); format: cell-based; settings: cells derived from a CPVT mouse model (R176Q/+ ventricular myocytes); read-out: IC50 (inhibition of calcium spark frequency)
T1 construct: other: cells derived from a CPVT mouse model (R176Q/+ ventricular myocyte)
From the text: (§2) Therein, calcium spark frequency data are shown in the presence of increasing amounts of added compound. IC50 is a measure of the effectiveness of a substance in inhibiting a particular biological process or function. Calcium spark frequency is plotted along the y-axis and compound concentration is plotted along the x-axis. Example dose-response curve 120 is included to illustrate the inhibitory effect of Compound 1 on spark frequency for the cells derived from a CPVT mouse model. The quantitative value of IC50 can be determined by identifying the concentration where half of the maximum biological response, such as the calcium spark response, is inhibited. For example, at lower compound concentrations dose-response curve 110 has a higher level of calcium spark frequency, whereas at higher compound concentrations, a transition of the calcium spark frequency to a lower level is observed. The concentration at which the sigmoidal curve of data response curve 120 has a spark frequency reduced by half corresponds to the IC50. […] Thus, as one example, a method for treating cardiac arrhythmias may include administering an amount of Compound 1 to a subject afflicted with heart arrhythmias. The administration may be performed via known routes, such as oral, epidermal, subcutaneous, intravenous, peritoneal, etc.
(§3) Functional Assays in CPVT mouse cells may include isolating ventricular cardiomyocytes from adult (2-3 month-old) R176Q/+ mice or WT littermates. In one exemplary assay, myocytes were loaded with 2 μM Fluo-4-AM in a normal Tyrode solution containing 1.8 mM Ca2+ for 30 minutes at room temperature before washing the cells with Tyrode solution for 15 minutes for de-esterification and transfering to a chamber equipped with parallel platinum electrodes.
(§4) After baseline measurements were completed, myocytes were exposed to the test lead compound. After a 5 min superfusion period, Ca2+ sparks were again measured in the same cell in the presence of the drug compound. The frequency of Ca2+ sparks (CaSpF) were calculated, e.g., using SparkMaster (Picht, E., et al., SparkMaster: automated calcium spark analysis with ImageJ. Am J Physiol Cell Physiol, 2007. 293(3): p. C1073-81), and applications before and after inclusion of the test compound were compared. A detailed dose-response relationship and measurements of inhibition of arrhythmogenic Ca2+ waves in ventricular myocytes from a CPVT mouse model (R176Q/+) were then completed on those compounds showing a significant decrease in spark frequency at 0.5 μM. At the conclusion of these experiments, the Ca2+ spark inhibition rate is calculated as a function of concentration for each compound tested, and an IC50 value determined for each drug compound. […] FIG. 4 compares an exemplary confocal line-scan image of Ca2+ spark recordings from ventricular myocytes isolated from wild-type (WT) mice at 410 relative to those isolated from S2814D mice as shown at 420.
(§5) The above-discussed Ca2+ spark assay was used with R176Q/+ myocytes as an initial screening assay to test the ability of new compounds to inhibit spontaneous pathological SR Ca2+ release in ventricular myocytes.

RyR2 [4] = test: as above; format: cell-based; settings: versus tetracaine
From the text: as §2, §3, §4, §5

SERCA2 = SERCA2 (Homo sapiens, UniProt P16615); test: ATPase activity of SERCA2 versus concentration; format: biochemical
Protocol: as §1

R176Q/+ mice = test: Arrhythmias (ventricular tachycardia) after cardiac pacing / programmed electrical stimulation in CPVT mice, whole animal level; format: in vivo, mouse
From the text: Ventricular tachycardia (or VT) is a type of tachycardia, or a rapid heart beat that arises from improper electrical activity of the heart that presents as a rapid heart rhythm. VT is associated with the bottom chambers of the heart, called the ventricles, which are pumping chambers of the heart. […] Therein, electrical signals for four different CPVT mice are shown. Wild type (or WT) signal 210 is provided for reference to illustrate a sinus rhythm (e.g., L2-ECG, lead 2 of the surface ECG). Atrial and ventricular intracardiac electrocardiogram signals are also provided for reference.

in vitro [5] = settings: human; remark: listed apart in the source
Cytotoxicity in HEK293 = settings: human, HEK293 cells
Cytotoxicity in HepG2 = settings: human, HepG2 cells
RyR = RyR (Oryctolagus cuniculus, UniProt P11716); settings: literature value; cited from earlier work

SERCA2, sequence (P16615 whole entry, species assumed): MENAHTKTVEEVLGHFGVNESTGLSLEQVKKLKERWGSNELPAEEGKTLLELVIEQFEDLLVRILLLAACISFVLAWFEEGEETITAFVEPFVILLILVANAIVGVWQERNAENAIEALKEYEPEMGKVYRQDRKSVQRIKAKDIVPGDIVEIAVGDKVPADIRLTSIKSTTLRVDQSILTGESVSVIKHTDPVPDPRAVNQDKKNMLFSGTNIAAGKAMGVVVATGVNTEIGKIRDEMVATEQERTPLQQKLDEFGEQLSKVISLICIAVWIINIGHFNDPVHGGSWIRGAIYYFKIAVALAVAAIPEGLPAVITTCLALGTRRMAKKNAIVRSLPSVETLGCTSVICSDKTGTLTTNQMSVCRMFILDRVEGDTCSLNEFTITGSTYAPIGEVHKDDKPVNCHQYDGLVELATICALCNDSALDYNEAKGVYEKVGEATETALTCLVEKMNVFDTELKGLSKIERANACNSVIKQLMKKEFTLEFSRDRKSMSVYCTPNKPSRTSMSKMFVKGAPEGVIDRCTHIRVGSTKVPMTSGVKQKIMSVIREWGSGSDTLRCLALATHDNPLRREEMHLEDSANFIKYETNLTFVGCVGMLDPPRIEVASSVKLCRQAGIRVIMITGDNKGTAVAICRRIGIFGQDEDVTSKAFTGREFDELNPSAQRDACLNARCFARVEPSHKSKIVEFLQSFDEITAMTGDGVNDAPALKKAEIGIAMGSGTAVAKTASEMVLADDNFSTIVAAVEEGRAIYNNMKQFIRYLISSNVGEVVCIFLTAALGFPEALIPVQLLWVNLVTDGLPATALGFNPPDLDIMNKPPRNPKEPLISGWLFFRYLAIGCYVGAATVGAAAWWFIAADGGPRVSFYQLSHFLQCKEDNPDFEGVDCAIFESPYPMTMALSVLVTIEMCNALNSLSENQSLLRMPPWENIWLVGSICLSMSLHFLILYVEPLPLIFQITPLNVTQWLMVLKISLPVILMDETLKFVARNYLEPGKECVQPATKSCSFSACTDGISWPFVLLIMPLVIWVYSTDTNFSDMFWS

SMILES	IC50 (in vitro [2]) [µM]	IC50 (RyR2 [3]) [µM]	IC50 (in vitro [5]) [µM]	other results
CCCCNc1ccc(C(=O)OCCN(CC)CC)c(OC)c1 [Compound 1]	> 50	0.035	> 50	effect on the length of the AP [1]: No indication has been observed that Compound 1 has any effect on the length of the AP; potency relative to the parent molecule tetracaine (inhibiting RyR2 activity / CRC) (RyR2 [4]): ~3000 times; ATPase activity of SERCA2 (SERCA2; 1 μM): unaffected; ATPase activity of SERCA2 (SERCA2; 10 μM): unaffected; ATPase activity of SERCA2 (SERCA2; 50 μM): unaffected; level at which arrhythmias are decreased in the whole animal (R176Q/+ mice; CPVT mice, whole animal level): 2.5 µg/kg; concentration with antiarrhythmic activity, as share of that of flecainide (R176Q/+ mice; CPVT mouse model, versus flecainide): 0.1%; arrhythmic development following pacing (R176Q/+ mice; R176Q/+ mice, cardiac pacing, ECG (FIG. 2)): protected from arrhythmic development following pacing; time to inhibition of arrhythmias (R176Q/+ mice; injected in the tail of the mouse): ≤ 10 min; concentration that suppressed ventricular tachycardia, as share of that of K201 (JTV519) (R176Q/+ mice; versus K201 in a similar mouse model): approximately 0.5%
CCCCNc1ccc(C(=O)O)cc1N(CCCC)CCCC [Compound 3]	> 50	0.5	> 50	
CCCCNc1ccc(OC(C)=O)cc1C [Compound 4]		0.63		
CCCCNc1ccc(C(=O)OCCN(C)C)cc1.Cl [Tetracaine]				IC50 (Cytotoxicity in HEK293): > 50 µM; IC50 (Cytotoxicity in HepG2): > 50 µM; concentration at which the RyR is inhibited (RyR): ~150 µM

More lines, main results first:

IC50 (in vitro [2]) [µM]	IC50 (RyR2 [3]) [µM]	IC50 (in vitro [5]) [µM]	SMILES	other results
> 50	0.011	> 50	CCCCNc1cc(OC)c(C(=O)OCCN(CC)CC)cc1Cl [Compound 2]	
> 50	0.8	> 50	CCCCNc1ccc(C(=O)OCCNCC)cc1C [Compound 5]	
